# Data: patent US9855270B2, “Methods and compositions for modulating estrogen receptor mutants” (priority 2014, dated 2018)
# Like-named read-outs stand apart in the source and are kept apart here.
# How the values were obtained:
# Type in all cases: cell-based
# [1] = tested on: MCF-7 cells stably expressing EF1 HA-ER-α wild-type; assay: MCF-7 Stable Cell Line Viability (EF1 HA-ER-α series); design: Percent inhibition compared to vehicle: concentration or dose not given beside the values; settings: EF1 HA-ER-α Wild-type; for Percent inhibition compared to vehicle: 5-Day Incubation; for Efficacy (Emax): Day 5 relative to Day 0; for EC50: Homo sapiens, MCF7, read-out: Potency (EC50; nM)
# Text: (§1) MCF-7 Mutant ER-α Stable Cell Line Generation: MCF-7 cells stably expressing wild-type or ER-α mutants were generated by subcloning ESR1 wild-type and mutant cDNAs containing an amino terminal hemagglutinin tag into pCDH-EF1-MCS-(PGK-Puro) (referred to as EF1 HA-ER-α) and pCDH-UbC-MCS-EF1-Hygro (referred to as UbC HA-ER-α) (System Biosciences). The resulting plasmids, in addition to an empty vector negative control, were subsequently cotransfected into HEK293T cells with the pPACKH1 packaging plasmid mix (System Biosciences) according to the manufacturer's protocol. Four days post transfection lentiviral particles were purified from the cell medium, tiered and stored at −80° C. MCF-7 cells were transduced with the purified viral particles and stable cell lines were selected by growth in RPMI containing 10% FBS plus 1 μG/mL puromycin or 200 μG/mL hygromycin for pCDH-EF1-MCS-(PGK-Puro) and pCDH-UbC-MCS-EF1-Hygro, respectively.
# (§2) MCF-7 Stable Cell Line Viability: MCF-7 cells were enumerated with a hemacytometer adjusted to a concentration of 40,000 cells per mL in Phenol Free RPMI containing 10% CSS with NEAA and Sodium Pyruvate. 16 microliters of the cell suspension was added to each well of a 384 well tissue culture treated white clear bottom polystyrene plate (Corning) using a Matrix 16 channel electronic pipette. The cells were incubated overnight to allow the cells to adhere. The following day, 16 microliters of Phenol Free RPMI containing 10% CSS with NEAA and Sodium Pyruvate was added to the wells of one plate, followed by 16 μL of CellTiter-Glo (Promega, Madison Wis.) luminescent cell viability reagent using a Matrix 16 channel electronic pipette. […] The “average” of the relative luminescence units (RLUs) of the wells are considered to be the baseline value at time=zero. In addition, a 10 point, 1:5 serial dilution in DMSO (Sigma-Aldrich) was performed using Matrix 12 channel electronic pipette, including DMSO only as […]. 4 μL of each dilution was then added to 196 μL of RPMI containing 10% CSS with NEAA and Sodium Pyruvate. 16 μL of medium containing compound was added to the cells at a final concentration ranging from 10 μM to 5 pM. Compound dilution in media and subsequent addition to cells were carried out using Matrix 12 channel electronic pipettes. After 5 day compound exposure, 16 μL of CellTiter-Glo (Promega, Madison Wis.) luminescent cell viability reagent was added to the cells using a Matrix 16 channel electronic pipette. CellTiter-Glo added to 32 μL of medium without cells was used to obtain a background value. […] The relative luminescence units (RLUs) of each well were measured, and relative proliferation (fold) of each sample was determined as follows: (RLU sample−RLU background)/(RLU at T=0)=relative proliferation
# (§3) The UbC promoter is reported by the manufacturer (System Biosciences) to express low to moderate RNA levels while the EF1 promoter expresses high levels (System Biosciences).
# [2] = tested on: MCF-7 cells transduced with an empty EF1 lentiviral vector (negative control); assay: as above; design: Percent inhibition compared to vehicle: concentration or dose not given beside the values; settings: for EC50: Homo sapiens, MCF7, Receptor None (empty EF1 lentiviral vector), read-out: Potency (EC50; nM); for Percent inhibition compared to vehicle / Efficacy (Emax): Receptor None (empty EF1 lentiviral vector); for Percent inhibition compared to vehicle: 5-Day Incubation; for Efficacy (Emax): Day 5 relative to Day 0
# Text: as §1, §2, §3
# [3] = tested on: MCF-7 cells stably expressing EF1 HA-ER-α Y537N; assay: cells; settings: EF1 HA-ER-α Y537N; for Efficacy (Emax): Day 5 relative to Day 0; for EC50: Homo sapiens, MCF7, read-out: Potency (EC50; nM)
# Text: as §1, §2, §3
# [4] = tested on: MCF-7 cells stably expressing EF1 HA-ER-α L536P; assay: cells; settings: EF1 HA-ER-α L536P; for Percent inhibition compared to vehicle: 5-Day Incubation; for Efficacy (Emax): Day 5 relative to Day 0; for EC50: Homo sapiens, MCF7, read-out: Potency (EC50; nM)
# Text: as §1, §2, §3
# [5] = tested on: MCF-7 cells stably expressing UbC HA-ER-α L536R; assay: cells; settings: UbC HA-ER-α L536R; for EC50: Homo sapiens, MCF7, read-out: Potency (EC50; nM); for Percent inhibition compared to vehicle: 5-Day Incubation; for Efficacy (Emax): Day 5 relative to Day 0
# Text: as §1, §2, §3
# [6] = tested on: MCF-7 cells (negative control); assay: MCF-7 Stable Cell Line Viability (UbC HA-ER-α series); settings: for EC50: Homo sapiens
# Text: as §1, §2, §3
# [7] = tested on: MCF-7 cells stably expressing UbC HA-ER-α wild-type; assay: as above; settings: UbC HA-ER-α Wild-type; for EC50: Homo sapiens, MCF7, read-out: Potency (EC50; nM); for Percent inhibition compared to vehicle: 5-Day Incubation; for Efficacy (Emax): Day 5 relative to Day 0
# Text: as §1, §2, §3
# [8] = Antagonist Mode, −E2 (Table 27)
# [9] = Receptor None (MCF-7 negative control), Agonist Mode, −E2, Day 5 relative to Day 0
smiles,measurement,setting,value
C[C@]12CC[C@@H]3c4ccc(O)cc4C[C@@H](CCCCCCCCC[S+]([O-])CCCC(F)(F)C(F)(F)F)[C@H]3[C@@H]1CC[C@@H]2O (stereo partly drawn) [Fulvestrant],Percent inhibition compared to vehicle,"[1]; Agonist Mode, −E2",63%
same,Efficacy (Emax),"[1]; Agonist Mode, −E2",2.12 ± 0.23
same,Percent inhibition compared to vehicle,"[1]; Antagonist Mode, +E2",70%
same,Efficacy (Emax),"[1]; Antagonist Mode, +E2",2.04 ± 0.10
same,EC50,"[1]; Agonist Mode, −E2",0.895 ± 0.173 nM
same,EC50,"[1]; Antagonist Mode, +E2",3.97 ± 0.955 nM
same,EC50,[1]; [8],0.895 ± 0.173 nM
same,EC50,"[2]; Agonist Mode, −E2",0.178 ± 0.129 nM
same,EC50,"[2]; Antagonist Mode, +E2",1.44 ± 0.156 nM
same,EC50,[2]; [8],0.178 ± 0.129 nM
same,Percent inhibition compared to vehicle,"[2]; Agonist Mode, −E2",51%
same,Efficacy (Emax),"[2]; Agonist Mode, −E2",1.09 ± 0.16
same,Percent inhibition compared to vehicle,"[2]; Antagonist Mode, +E2",74%
same,Efficacy (Emax),"[2]; Antagonist Mode, +E2",1.04 ± 0.15
same,Efficacy (Emax),"[3]; Agonist Mode, −E2",0.52 ± 0.09
same,Percent inhibition compared to vehicle,"[3]; Antagonist Mode, +E2, 5-Day Incubation",90%
same,Efficacy (Emax),"[3]; Antagonist Mode, +E2",0.56 ± 0.02
same,EC50,"[3]; Agonist Mode, −E2",9.26 ± 2.39 nM
same,EC50,"[3]; Antagonist Mode, +E2",12.4 ± 3.52 nM
same,EC50,[3]; [8],9.26 ± 2.39 nM
same,Percent inhibition compared to vehicle,"[4]; Agonist Mode, −E2",56%
same,Efficacy (Emax),"[4]; Agonist Mode, −E2",3.58 ± 0.10
same,Percent inhibition compared to vehicle,"[4]; Antagonist Mode, +E2",60%
same,Efficacy (Emax),"[4]; Antagonist Mode, +E2",3.65 ± 0.56
same,EC50,"[4]; Agonist Mode, −E2",4.51 ± 0.313 nM
same,EC50,"[4]; Antagonist Mode, +E2",16.4 ± 8.21 nM
same,EC50,[4]; [8],4.51 ± 0.313 nM
same,EC50,"[5]; Agonist Mode, −E2",0.257 ± 0.09 nM
same,EC50,"[5]; Antagonist Mode, +E2",2.3 ± 1.81 nM
same,Percent inhibition compared to vehicle,"[5]; Agonist Mode, −E2",55%
same,Efficacy (Emax),"[5]; Agonist Mode, −E2",1.71 ± 0.22
same,Percent inhibition compared to vehicle,"[5]; Antagonist Mode, +E2",71%
same,Efficacy (Emax),"[5]; Antagonist Mode, +E2",1.71 ± 0.16
same,EC50,"[6]; MCF7, read-out: Potency (EC50; nM), Receptor None (MCF-7 negative control), Agonist Mode, −E2",0.05 ± 0.017 nM
same,EC50,"[6]; MCF7, read-out: Potency (EC50; nM), Receptor None (MCF-7 negative control), Antagonist Mode, +E2",0.327 ± 0.324 nM
same,Percent inhibition compared to vehicle,"[6]; Receptor None (MCF-7 negative control), Agonist Mode, −E2, 5-Day Incubation",28%
same,Efficacy (Emax),[6]; [9],1.27 ± 0.24
same,Percent inhibition compared to vehicle,"[6]; Receptor None (MCF-7 negative control), Antagonist Mode, +E2, 5-Day Incubation",64%
same,Efficacy (Emax),"[6]; Receptor None (MCF-7 negative control), Antagonist Mode, +E2, Day 5 relative to Day 0",1.15 ± 0.01
same,EC50,"[7]; Agonist Mode, −E2",0.08 ± 0.042 nM
same,EC50,"[7]; Antagonist Mode, +E2",0.516 ± 0.479 nM
same,Percent inhibition compared to vehicle,"[7]; Agonist Mode, −E2",37%
same,Efficacy (Emax),"[7]; Agonist Mode, −E2",1.17 ± 0.13
same,Percent inhibition compared to vehicle,"[7]; Antagonist Mode, +E2",75%
same,Efficacy (Emax),"[7]; Antagonist Mode, +E2",1.23 ± 0.09
C[C@]12CC[C@@H]3c4ccc(O)cc4CC[C@H]3[C@@H]1CC[C@@H]2O [17β-Estradiol],Efficacy (Emax),"[1]; Agonist Mode, −E2",7.35 ± 1.28
same,Efficacy (Emax),"[1]; Antagonist Mode, +E2",6.67 ± 1.25
same,EC50,"[1]; Agonist Mode, −E2",0.518 ± 0.699 nM
same,EC50,[1]; [8],0.518 ± 0.699 nM
same,EC50,"[2]; Agonist Mode, −E2",0.02 ± 0.001 nM
same,EC50,[2]; [8],0.02 ± 0.001 nM
same,Efficacy (Emax),"[2]; Antagonist Mode, +E2",4.24 ± 0.90
same,Efficacy (Emax),"[3]; Agonist Mode, −E2",5.52 ± 0.43
same,Efficacy (Emax),"[4]; Agonist Mode, −E2",8.49 ± 0.94
same,Efficacy (Emax),"[4]; Antagonist Mode, +E2",9.07 ± 0.12
same,EC50,"[5]; Agonist Mode, −E2",0.008 ± 0.006 nM
same,Efficacy (Emax),"[5]; Agonist Mode, −E2",5.72 ± 0.74
same,Efficacy (Emax),"[5]; Antagonist Mode, +E2",5.92 ± 0.67
same,EC50,"[6]; MCF7, Receptor None (MCF-7 negative control), Agonist Mode, −E2, read-out: Potency (EC50; nM)",0.279 ± 0.518 nM
same,Efficacy (Emax),[6]; [9],4.12 ± 0.88
same,EC50,"[7]; Agonist Mode, −E2",0.101 ± 0.16 nM
same,Efficacy (Emax),"[7]; Agonist Mode, −E2",4.43 ± 0.88
same,Efficacy (Emax),"[7]; Antagonist Mode, +E2",5.12 ± 1.52
